Test results published in the NIST ThermoML archive (doi:10.1021/je201301b).
± gives the expanded uncertainty stated by the source.

Settings: 101.33 kPa, Liquid, Vibrating tube method

| Structure (SMILES) | mass density (298.15 K) | mass density (308.15 K) | mass density (318.15 K) | mass density (328.15 K) | mass density (338.15 K) | mass density (348.15 K) |
| --- | --- | --- | --- | --- | --- | --- |
| CCCCCCOCn1cc[n+](COCCCCCC)c1.O=S(=O)([N-]S(=O)(=O)C(F)(F)F)C(F)(F)F | 1254.89 ± 3.9 kg/m3 | 1246.07 ± 3.9 kg/m3 | 1237.28 ± 3.8 kg/m3 | 1228.51 ± 3.8 kg/m3 | 1219.66 ± 3.7 kg/m3 | 1210.87 ± 3.7 kg/m3 |
| CCCCCCOCn1cc[n+](C)c1.F[B-](F)(F)F [1-hexyloxymethyl-3-methylimidazolium tetrafluoroborate] | 1153.1 ± 3.3 kg/m3 | 1145.76 ± 3.2 kg/m3 | 1138.71 ± 3.2 kg/m3 | 1131.65 ± 3.2 kg/m3 | 1124.63 ± 3.1 kg/m3 | 1117.63 ± 3.1 kg/m3 |
